Measured values: ChEMBL document CHEMBL1201862, “PubChem BioAssay data set” (2004)
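All cell lines were grown in 96-well plates and treated with compound for 48 hours. GI50 marks 50% less growth.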 The source made the active and inactive calls. No stated cut-off is given here; in the data, active = GI50 up to about 1.1 µM and inactive = higher.

Experiments:
Experiment in all cases: NCI anticancer screen, dose series, 48 h
[1] = tested on: MOLT-4
[2] = tested on: DU-145
[3] = tested on: Hs-578T
[4] = tested on: MDA-MB-231
[5] = tested on: HL-60
[6] = tested on: MDA-N
[7] = tested on: SW-620
[8] = tested on: RXF 393
[9] = tested on: SNB-19
[10] = tested on: HCT-116
[11] = tested on: UACC-62
[12] = tested on: RPMI-8226
[13] = tested on: COLO 205
[14] = tested on: 786-0
[15] = tested on: OVCAR-3
[16] = tested on: BT-549
[17] = tested on: MDA-MB-435
[18] = tested on: OVCAR-5
[19] = tested on: SK-MEL-28
[20] = tested on: SF-268
[21] = tested on: MCF7
[22] = tested on: SK-OV-3
[23] = tested on: HOP-62
[24] = tested on: SF-539
[25] = tested on: NCI-H460
[26] = tested on: NCI-H226
[27] = tested on: OVCAR-8
[28] = tested on: LOX IMVI
[29] = tested on: ACHN
[30] = tested on: OVCAR-4
[31] = tested on: KM12
[32] = tested on: K562
[33] = tested on: SK-MEL-5
[34] = tested on: EKVX
[35] = tested on: M14
[36] = tested on: NCI-H522
[37] = tested on: CCRF-CEM
[38] = tested on: A549
[39] = tested on: NCI-H23
[40] = tested on: HT-29
[41] = tested on: SF-295
[42] = tested on: U-251
[43] = tested on: CAKI-1
[44] = tested on: Malme-3M
[45] = tested on: SNB-75
[46] = tested on: TK-10
[47] = tested on: UO-31
[48] = tested on: A498
[49] = tested on: T47D
[50] = tested on: SK-MEL-2
[51] = tested on: HCT-15
[52] = tested on: UACC-257
[53] = tested on: HCC 2998
[54] = tested on: PC-3
[55] = tested on: IGROV-1
[56] = tested on: SN12C
[57] = tested on: NCI/ADR-RES
[58] = tested on: HOP-92

CC(C)(CN1CCCCC1)C(/C=C/c1ccc(Cl)c(Cl)c1)=N\NC(=O)N/N=C(/C=C/c1ccc(Cl)c(Cl)c1)C(C)(C)CN1CCCCC1
GI50 [1]: 2.62 µM (inactive)
GI50 [2]: 1.85 µM (inactive)
GI50 [3]: 1.81 µM (inactive)
GI50 [4]: 2.06 µM (inactive)
GI50 [5]: 1.52 µM (inactive)
GI50 [6]: 1.42 µM (inactive)
GI50 [7]: 1.62 µM (inactive)
GI50 [8]: 0.659 µM (active)
GI50 [9]: 1.69 µM (inactive)
GI50 [10]: 0.908 µM (active)
GI50 [11]: 1.95 µM (inactive)
GI50 [12]: 1.42 µM (inactive)
GI50 [13]: 1.64 µM (inactive)
GI50 [14]: 1.48 µM (inactive)
GI50 [15]: 1.56 µM (inactive)
GI50 [16]: > 10 µM (inactive)
GI50 [17]: 1.31 µM (inactive)
GI50 [18]: 1.59 µM (inactive)
GI50 [19]: 1.72 µM (inactive)
GI50 [20]: 1.57 µM (inactive)
GI50 [21]: 1.54 µM (inactive)
GI50 [22]: 1.92 µM (inactive)
GI50 [23]: 1.87 µM (inactive)
GI50 [24]: 1.77 µM (inactive)
GI50 [25]: 1.35 µM (inactive)
GI50 [26]: 2.3 µM (inactive)
GI50 [27]: 1.87 µM (inactive)
GI50 [28]: 1.12 µM (inactive)
GI50 [29]: 1.89 µM (inactive)
GI50 [30]: 1.71 µM (inactive)
GI50 [31]: 1.63 µM (inactive)
GI50 [32]: 0.325 µM (active)
GI50 [33]: 1.99 µM (inactive)
GI50 [34]: 1.64 µM (inactive)
GI50 [35]: 0.385 µM (active)
GI50 [36]: 1.82 µM (inactive)
GI50 [37]: 1.76 µM (inactive)
GI50 [38]: 1.86 µM (inactive)
GI50 [39]: 1.93 µM (inactive)
GI50 [40]: 0.361 µM (active)
GI50 [41]: 1.71 µM (inactive)
GI50 [42]: 1.69 µM (inactive)
GI50 [43]: 1.71 µM (inactive)
GI50 [44]: 1.55 µM (inactive)
GI50 [45]: 1.55 µM (inactive)
GI50 [46]: 1.66 µM (inactive)
GI50 [47]: 4.14 µM (inactive)
GI50 [48]: 1.72 µM (inactive)
GI50 [49]: 2.05 µM (inactive)
GI50 [50]: > 10 µM (inactive)
GI50 [51]: 1.08 µM
GI50 [52]: 1.63 µM (inactive)
GI50 [53]: 1.69 µM (inactive)
GI50 [54]: > 10 µM (inactive)
GI50 [55]: 1.77 µM (inactive)
GI50 [56]: 1.77 µM (inactive)
GI50 [57]: 1.73 µM (inactive)

CCN(CC)c1ccc(C2Nc3ccc4ccccc4c3C3=C2C(=O)CCC3)cc1 (configuration not stated)
GI50 [1]: > 100 µM (inactive)
GI50 [2]: 23.9 µM (inactive)
GI50 [3]: 11.2 µM (inactive)
GI50 [4]: 11.7 µM (inactive)
GI50 [6]: > 100 µM (inactive)
GI50 [7]: > 100 µM (inactive)
GI50 [8]: 17.3 µM (inactive)
GI50 [9]: 37.3 µM (inactive)
GI50 [10]: 25.3 µM (inactive)
GI50 [11]: 24.7 µM (inactive)
GI50 [12]: > 100 µM (inactive)
GI50 [13]: > 100 µM (inactive)
GI50 [14]: 19.4 µM (inactive)
GI50 [15]: 16.4 µM (inactive)
GI50 [16]: 60.8 µM (inactive)
GI50 [17]: 54.6 µM (inactive)
GI50 [18]: > 100 µM (inactive)
GI50 [19]: > 100 µM (inactive)
GI50 [20]: 27.5 µM (inactive)
GI50 [21]: 40.3 µM (inactive)
GI50 [22]: 38.4 µM (inactive)
GI50 [23]: 20.4 µM (inactive)
GI50 [24]: 13.1 µM (inactive)
GI50 [25]: > 100 µM (inactive)
GI50 [26]: 35.8 µM (inactive)
GI50 [27]: 14.7 µM (inactive)
GI50 [29]: 12.2 µM (inactive)
GI50 [30]: 14.9 µM (inactive)
GI50 [31]: > 100 µM (inactive)
GI50 [32]: > 100 µM (inactive)
GI50 [34]: > 100 µM (inactive)
GI50 [35]: > 100 µM (inactive)
GI50 [37]: > 100 µM (inactive)
GI50 [38]: 26.7 µM (inactive)
GI50 [39]: 75 µM (inactive)
GI50 [40]: 55.7 µM (inactive)
GI50 [41]: 24.6 µM (inactive)
GI50 [42]: 14.9 µM (inactive)
GI50 [43]: 33.7 µM (inactive)
GI50 [44]: > 100 µM (inactive)
GI50 [45]: 17.3 µM (inactive)
GI50 [47]: 26.1 µM (inactive)
GI50 [48]: 45.4 µM (inactive)
GI50 [49]: 39 µM (inactive)
GI50 [50]: 35.5 µM (inactive)
GI50 [51]: > 100 µM
GI50 [52]: > 100 µM (inactive)
GI50 [53]: > 100 µM (inactive)
GI50 [54]: 39.3 µM (inactive)
GI50 [56]: 42 µM (inactive)
GI50 [57]: 26.6 µM (inactive)

Oc1cc(O)c2c(c1)OC(c1ccc(O)c(O)c1)C(O)C2c1c(O)cc(O)c2c1OC(c1ccc(O)c(O)c1)C(O)C2 (configuration not stated)
GI50 [2]: > 100 µM (inactive)
GI50 [3]: > 100 µM (inactive)
GI50 [4]: > 100 µM (inactive)
GI50 [5]: 0.0323 µM (active)
GI50 [6]: > 100 µM (inactive)
GI50 [7]: 45.4 µM (inactive)
GI50 [58]: > 100 µM (inactive)
GI50 [8]: > 100 µM (inactive)
GI50 [9]: > 100 µM (inactive)
GI50 [10]: > 100 µM (inactive)
GI50 [11]: > 100 µM (inactive)
GI50 [12]: > 100 µM (inactive)
GI50 [13]: > 100 µM (inactive)
GI50 [14]: > 100 µM (inactive)
GI50 [15]: > 100 µM (inactive)
GI50 [16]: > 100 µM (inactive)
GI50 [17]: > 100 µM (inactive)
GI50 [18]: > 100 µM (inactive)
GI50 [19]: > 100 µM (inactive)
GI50 [20]: > 100 µM (inactive)
GI50 [21]: > 100 µM (inactive)
GI50 [22]: > 100 µM (inactive)
GI50 [23]: > 100 µM (inactive)
GI50 [24]: > 100 µM (inactive)
GI50 [25]: 85.1 µM (inactive)
GI50 [26]: > 100 µM (inactive)
GI50 [27]: > 100 µM (inactive)
GI50 [28]: > 100 µM (inactive)
GI50 [29]: > 100 µM (inactive)
GI50 [30]: > 100 µM (inactive)
GI50 [31]: 46.5 µM (inactive)
GI50 [33]: > 100 µM (inactive)
GI50 [34]: > 100 µM (inactive)
GI50 [35]: > 100 µM (inactive)
GI50 [36]: > 100 µM (inactive)
GI50 [38]: > 100 µM (inactive)
GI50 [39]: > 100 µM (inactive)
GI50 [40]: > 100 µM (inactive)
GI50 [41]: > 100 µM (inactive)
GI50 [42]: > 100 µM (inactive)
GI50 [43]: 25.4 µM (inactive)
GI50 [44]: > 100 µM (inactive)
GI50 [45]: > 100 µM (inactive)
GI50 [46]: > 100 µM (inactive)
GI50 [47]: > 100 µM (inactive)
GI50 [48]: 45.5 µM (inactive)
GI50 [49]: > 100 µM (inactive)
GI50 [50]: > 100 µM (inactive)
GI50 [51]: > 100 µM
GI50 [52]: > 100 µM (inactive)
GI50 [54]: > 100 µM (inactive)
GI50 [55]: > 100 µM (inactive)
GI50 [56]: > 100 µM (inactive)
GI50 [57]: > 100 µM (inactive)
